From patent publication US20260242440A1, “NOVEL MEANS TO MODULATE NMDA RECEPTOR-MEDIATED TOXICITY” (FUNDAMENTAL PHARMA GMBH, priority 2018, published 2026)
“Also recorded” adds a separate entry of the source.

Tested on: NMDA receptor
Experiment: NMDA-induced calcium transients (Fura2 calcium imaging)
Format: cell-based, mouse
Conditions: hippocampal neurons, 6 min NMDA (20 μM) application
Description: In a further experiment, the impact of P4 and P15 on NMDA-induced calcium transients was assessed. Briefly, for calcium imaging, primary hippocampal neurons on coverslips were loaded with the cell-permeable, high-affinity ratiometric calcium indicator Fura2-AM (Invitrogen™ F1221), at 1 μM in CO2-independent culture medium (CICM; CICM contains: 10 mM HEPES, 140 mM NaCl, 2.5 mM KCl, 1.0 mM MgCl2, 2.0 mM CaCl2, 1.0 mM Glycine, 35.6 mM Glucose and 0.5 mM Na-pyruvate) for 30 min at 37° C., then washed and left in CICM for another 30 min to allow for de-esterification. Fura2 was excited at 340/11 nm and 380/11 nm, and fluorescence emission was obtained from a 40× UV compatible objective (LUMPLFLN, Olympus) through a 510/20 nm emission filter. For quantification, ImageJ was used to calculate average background-subtracted fluorescence intensities for 340 and 380 nm excitation (F340 and F380) from each neuron. Intracellular calcium levels were plotted as F340/F380 ratios over time, from which the NMDA response amplitude and area under the curve (AUC) was calculated to quantify NMDA-induced calcium influx.

Which NMDA-induced calcium transients does the source give for `CCN(CCN)Cc1cccc(Br)c1` [P4] here?
Its NMDA-induced calcium transients is “neither compound P4 nor compound P15 reduced; also recorded: neither compound P4 nor P15 reduced”.
